pIC50: −log10 of the molar value.
Key:
[1] = test system: CDX2(+) derived cell lines D4 and B2; experiment: Long-term nutritional deprivation, cellular survival of cell colonies in vitro; type: cell-based
From the text: FIG. 6A depicts bar graphs that illustrate the long-term effect of nutritional deprivation on cellular survival in CDX2(−) and CDX2(+) cell colonies in vitro and the effect of treatment with autophagy inhibitors. […] P<0.001.

OVCA429 CDX2 = experiment: cells; conditions: Homo sapiens, OVCA429, 48 h, read-out: 48 h IC50 CQ in adherent culture
From the text: (§1) FIG. 7 depicts bar graphs that illustrate the results of an OVCA429 soft agar assay. […] This confirms the effect in human high grade serous ovarian cancer cells. […] CDX2(−) at left. […] P<0.005.

OVCA429 GAL (CDX2(−)) = experiment: cells; conditions: Homo sapiens, OVCA429, 48 h, read-out: 48 h IC50 CQ in adherent culture
From the text: as §1

[2] = test system: CDX2(+) ovarian tumours in mice; experiment: Survival of mice with ovarian tumours treated with chloroquine; type: in vivo, mouse; conditions: chloroquine 10 mg/kg 3 times a week, initiated 30 days after delivery of tumor cells
From the text: For all experiments aged females (9-10 month) were used, as these represent targeted patient population (e.g., peri-menopausal women). Mice were sacrificed when ascites formed.

[3] = test system: CDX2(+) ovarian cancer cells; experiment: Hanging drop assay under starvation conditions; type: cell-based, mouse
From the text: FIG. 3A depicts a CDX2(−) parental control. FIGS. 3B and 3C depict CDX2(+) derived cell lines. The mouse ovarian cancer cell line MOSEC5 that is CDX2(−) was genetically modified to create CDX2(+) derived cell lines. Cells were placed in a “hanging drop” assay under starvation conditions.

Cdx2-expressing cells = experiment: Expression of autophagy genes after chloroquine in Cdx2-expressing cells; type: cell-based

SMILES	survival of CDX2(+) cells after long-term stress [1]	pIC50 (OVCA429 CDX2)	pIC50 (OVCA429 GAL (CDX2(−)))	survival of mice [2]	survival of mice ([2]; listed as Chloroquine)	cancer cell survival [3]	inhibition of autophagy [3]	LAM P1 gene expression (Cdx2-expressing cells)	NPC gene expression (Cdx2-expressing cells)	SQSTM1 gene expression (Cdx2-expressing cells)	ULK2 gene expression (Cdx2-expressing cells)	WIPI1 gene expression (Cdx2-expressing cells)
Cn1cnc(N)c2ncnc1-2 [3-methyladenine]	reverse this survival	–	–	–	–	–	–	–	–	–	–	–
CCN(CC)CCCC(C)Nc1ccnc2cc(Cl)ccc12 (stereo not shown) [chloroquine]	reverse this survival	5.03	4.94	prolongs survival of mice with ovarian tumours	improved survival in CDX2(+) mice	reduce cancer cell survival	did inhibit autophagy	down-regulated	significantly up-regulated	significantly up-regulated	down-regulated	significantly up-regulated

Source: patent US20210215710A1, “METHODS FOR USE OF CDX2 AS A BIOMARKER TO GUIDE USE OF AUTOPHAGY INHIBITORS IN OVARIAN CANCER” (UNIVERSITY HEALTH NETWORK, priority 2019, published 2021)
